From patent US8372592B2, “High resolution label free analysis of cellular properties” (X-Body, Inc., priority 2008, dated 2013)

Target: VCAM-1 and VLA-4 binding (J6 cells, which express VLA-4) (Homo sapiens, UniProt P05556+P13612)
Conditions: J6 cells + 1 mM Mn2+; EDTA added at the 110 minute mark; FIG. 4
Protocol: VCAM-1 can be fused or bound to a ZZ-binding domain from Protein A. The ZZ-binding domain will specifically bind to IgG immobilized on the surface of the biosensor. Cells that express VLA-4 will bind to the VCAM-1 adhesion protein, which is bound to IgG immobilized to the surface of the biosensor. Therefore cells expressing an adhesion protein ligand will be immobilized to the biosensor surface.
VCAM-1, which was fused to the ZZ-binding domain of Protein A, was added to a biosensor having IgG immobilized to its surface. J6 cells, which express VLA-4, were added to the biosensor surface. […] The “J6 cells+1 mM Mn^2+” and “Buffer” lines shown in FIG. 4 both contained J6 cells and 1 mM Mn^2+. The “J6 cells and EDTA” line contained J6 cells and EDTA. At the 110 minute mark, EDTA was added to the “J6 cells+1 mM Mn^2+” cells.

VCAM-1 and VLA-4 binding (J6 cells, which express VLA-4), sequence (P13612 34-1032): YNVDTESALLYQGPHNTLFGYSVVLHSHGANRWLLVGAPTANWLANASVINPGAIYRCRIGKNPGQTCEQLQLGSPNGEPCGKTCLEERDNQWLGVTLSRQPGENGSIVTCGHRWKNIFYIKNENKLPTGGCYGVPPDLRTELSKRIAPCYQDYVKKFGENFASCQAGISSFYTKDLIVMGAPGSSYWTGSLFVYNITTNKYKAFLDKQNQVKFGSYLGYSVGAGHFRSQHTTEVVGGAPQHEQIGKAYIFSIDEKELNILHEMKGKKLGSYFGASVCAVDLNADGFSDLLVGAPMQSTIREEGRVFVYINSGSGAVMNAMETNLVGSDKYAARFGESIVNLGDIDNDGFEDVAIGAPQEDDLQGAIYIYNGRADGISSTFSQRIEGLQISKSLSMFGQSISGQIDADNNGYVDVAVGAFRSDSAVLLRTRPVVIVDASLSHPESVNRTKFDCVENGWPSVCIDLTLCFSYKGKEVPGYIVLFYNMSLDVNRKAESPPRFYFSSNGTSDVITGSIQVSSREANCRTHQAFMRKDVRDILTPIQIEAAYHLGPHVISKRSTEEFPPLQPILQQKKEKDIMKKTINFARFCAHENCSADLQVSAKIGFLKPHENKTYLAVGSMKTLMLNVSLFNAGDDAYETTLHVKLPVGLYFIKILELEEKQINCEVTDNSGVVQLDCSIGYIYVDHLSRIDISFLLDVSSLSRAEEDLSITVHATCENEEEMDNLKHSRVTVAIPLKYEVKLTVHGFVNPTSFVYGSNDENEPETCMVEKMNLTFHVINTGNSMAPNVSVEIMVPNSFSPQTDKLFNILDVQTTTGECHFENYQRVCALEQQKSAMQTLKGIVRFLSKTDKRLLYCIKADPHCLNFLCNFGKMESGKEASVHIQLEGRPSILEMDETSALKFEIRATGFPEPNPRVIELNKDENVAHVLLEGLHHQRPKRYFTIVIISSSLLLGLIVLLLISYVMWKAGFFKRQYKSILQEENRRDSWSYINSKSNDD
VCAM-1 and VLA-4 binding (J6 cells, which express VLA-4), sequence (P05556 21-798): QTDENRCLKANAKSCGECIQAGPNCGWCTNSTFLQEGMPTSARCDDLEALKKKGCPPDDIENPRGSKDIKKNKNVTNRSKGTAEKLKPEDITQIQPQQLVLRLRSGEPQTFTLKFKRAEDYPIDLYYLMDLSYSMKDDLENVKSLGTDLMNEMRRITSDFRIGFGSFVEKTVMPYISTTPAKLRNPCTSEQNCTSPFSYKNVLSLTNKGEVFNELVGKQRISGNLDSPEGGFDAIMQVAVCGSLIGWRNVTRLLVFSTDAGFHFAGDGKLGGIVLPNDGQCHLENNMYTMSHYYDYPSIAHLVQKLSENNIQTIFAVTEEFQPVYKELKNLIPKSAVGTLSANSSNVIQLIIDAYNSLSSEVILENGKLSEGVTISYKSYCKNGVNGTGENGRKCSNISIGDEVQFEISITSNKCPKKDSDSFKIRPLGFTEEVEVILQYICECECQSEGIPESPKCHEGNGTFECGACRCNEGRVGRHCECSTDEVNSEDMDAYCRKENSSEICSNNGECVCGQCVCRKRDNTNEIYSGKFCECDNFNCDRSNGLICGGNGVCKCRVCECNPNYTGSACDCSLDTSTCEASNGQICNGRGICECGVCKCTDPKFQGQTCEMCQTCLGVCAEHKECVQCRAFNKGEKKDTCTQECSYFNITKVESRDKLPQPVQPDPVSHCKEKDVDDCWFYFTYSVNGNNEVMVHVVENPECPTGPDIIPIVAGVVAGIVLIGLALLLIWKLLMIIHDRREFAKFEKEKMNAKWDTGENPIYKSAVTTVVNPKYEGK

amount of binding of cells to the VCAM-1 immobilized to the surface of the biosensor: quickly dropped off
Structure (SMILES): O=C(O)CN(CCN(CC(=O)O)CC(=O)O)CC(=O)O [EDTA]
